Reference: patent US20260259169A1, “BETA-LACTAMASE SUBSTRATE COMPOUNDS AND ELECTROCHEMICAL DETECTION METHODS USING THEM” (priority 2023, published 2026)

Assay: NMR stability study in relation to a 22 mM succinate buffer reference
Format: physicochemical
Description: The stability of the beta-lactamase substrate compounds over time at different temperatures was tested the reference HMRZ-86 of example 1 (at 1.2 mM) and the beta-lactamase substrate compound with R being 2-nitro-4-cyano of Example 1 (at 2.4 mM).
The stability of both beta-lactamase substrate compounds was also tested in relation to a 22 mM succinate buffer reference. […] Contrary to the dimethylformamide (DMF) reference, the degradation in relation to the succinate buffer was similar for both substrate compounds, with the first degradation starting after 2 weeks at both temperatures.

## CC(C)(ON=C(C(=O)N[C@@H]1C(=O)N2C(C(=O)O)=C(C=Cc3ccc([N+](=O)[O-])cc3[N+](=O)[O-])CS[C@H]12)c1csc(N)n1)C(=O)O.O=C(O)C(F)(F)F [HMRZ-86, reference compound]
4° C.
  time at which the first degradation starts: 2 weeks
20° C.
  time at which the first degradation starts: 2 weeks
